{Fluorescein} = fluorescein attached by a linker
How the values were obtained:
streptavidin [1] = biological target: T1, streptavidin (Streptomyces avidinii, UniProt P22629); assay: Inhibition of binding of the receptor agent to the probe ligand using unimolecular probe UP6-23B (Example 18); conditions: 12.5 pmol streptavidin, 50 pmol probe; background subtracted
T1 construct: purchased Pierce (IL, USA)
Protocol: Assay solutions for the inhibition test were prepared as follows. In each well of a 96 well PCR plate, 50 μL of 10 mM Tris, pH 8.5, 50 mM KCl, 2.5 mM MgCl2 containing 12.5 pmol of streptavidin and different amount of an inhibitor (biotin) was introduced and incubated for about 30 min at room temperature. About 50 pmol of the probe UP6-23B (SEQ ID NO: 141) was then added to each well and incubated for about 30 min at 60° C. before the fluorescence measurement.

[2] = tested on: T2, PKC probe UP10-23PKC (SEQ ID NO: 165), peptide KRTLRRC conjugated to the UP10-23A pre-probe
T2 sequence: KRTLRRC

streptavidin [3] = biological target: T1, streptavidin; assay: Unimolecular probe assay for streptavidin analysed by non-denaturing electrophoresis (Example 3); assay type: binding; conditions: in the presence of streptavidin; incubated in ice for an hour
From the text: Two unimolecular affinity probes, UP1-34B (SEQ ID NO: 127) and UP2-6B/36B (SEQ ID NO: 128), having biotin as a probe ligand were used to detect a receptor agent, streptavidin (SA). The unimolecular affinity probe UP1 is depicted schematically in FIG. 18. UP1 has a biotin-coupled thymidine at the 34th position, and UP2 has two biotin-coupled thyrnidines at the 6th and 36th positions (see FIG. 23A for the structure of the biotin-coupled thymidine). Each unimolecular probe has an interactive label pair consisting of a fluorescer, fluorescein, and a quencher, DABCYL (4-(4′-dimethylaminophenylazo)benzoic acid), which are covalently linked to the 5′ and the 3′ terminus by a linker, respectively. The structures of the fluorescein and DABCYL with the linker are shown in FIGS. 23B and 23D, respectively. […] This causes decrease of the fluorescence intensity from the probe compared to the dissociated conformation in which the stem duplex is dissociated and thus the fluorescer moiety is located distal from the quencher moiety. […]
Assay solutions were prepared according to the compositions summarized in Table 6, incubated in ice for an hour, and analyzed by electrophoresis. […] Dissociation of the stem duplexes due to the destabilization effect caused by the binding of the receptor agent is manifested by the increased fluorescence. […]

streptavidin [4] = biological target: T1, streptavidin; assay: Receptor-binding assay, temperature dependence of fluorescence signal of unimolecular probes (Examples 11-17); conditions: for relative increase of the fluorescence intensity (¼ molar equivalent of streptavidin divided by that without streptavidin): 25° C., 50 pmol probe
Protocol: In order to perform receptor-binding assay, about 50 pmol of each unimolecular probe was mixed with 0, ⅛, and ¼ molar equivalent of streptavidin (0, 6.25, 12.5 pmol, respectively) in 50 μL of pH 8.5 10 mM Tris containing 50 mM KCl, […] well of a 96 well PCR plate (Bio-Rad, CA, USA). Note that ¼ molar equivalent of streptavidine corresponds to 1 molar equivalent of the biotin binding site in streptavidin with respect to the amount of the unmolecular probe used because streptavidin has 4 biotin binding sites. The assay solutions were then incubated for about 30 min at 60° C. The temperature dependence of the fluorescence signal from each well was measured with an iCycler iQ real time PCR machine purchased from Bio-Rad (CA, USA) using the melting profile protocol.
The assay solutions for the unimolecular probes (50 pmol of each probe with 0, ⅛, and ¼ molar equivalent of streptavidin) were prepared in a 96 well PCR plates by the same procedure described in Example 11. As in Example 11, the temperature dependence of the fluorescence signal was measured with an iCycler iQ real time PCR machine.
(§1) Again, the assay solutions for the above unimolecular probes (50 pmol of each probe with 0, ⅛, and ¼ molar equivalent of streptavidin) were prepared in a 96 well PCR plates by the same procedure described in Example 11, and the temperature dependence of the fluorescence signal was measured with an iCycler iQ real time PCR machine.
as §1, with “above two” for “above”, “0” for “0, ⅛,”
Assay solutions for the above unimolecular probe (50 pmol of each probe with 0 and ¼ molar equivalent of streptavidin) were prepared in a 96 well PCR plates by the same procedure described in Example 11, and the temperature dependence of the fluorescence signal was measured.
Assay solutions for the above unimolecular probe (50 pmol of each probe with 0 and ¼ molar equivalent of streptavidin with total volume including the buffer solution being 50 μL) were prepared in a 96 well PCR plates using the following four buffer solutions: pH 6.0 10 mM MES containing 50 mM KCl, 2.5 mM MgCl2; pH 7.0 10 mM Tris containing 50 mM KCl, 2.5 mM MgCl2; pH 8.0 10 mM Tris containing 50 mM KCl, 2.5 mM MgCl2; and pH 9.0 10 mM Tris containing 50 mM KCl, […] The temperature dependence of the fluorescence signal from each well was measured with an iCycler iQ real time PCR machine.

streptavidin [5] = biological target: T1, streptavidin; assay: Immobilized trimolecular affinity probe assay for detecting streptavidin (Example 9); assay type: binding; conditions: upon addition of streptavidin, depending on amount added; CM3* fluorescence at 535 nm
From the text: Two immobilized trimolecular affinity probes having a probe ligand (biotin) conjugated to the first complement sequence were used to detect streptavidin. One of the trimolecular probes used in this example is depicted schematically in FIG. 15. The first probe consists of an object oligonucleotide OB1-1B (SEQ ID NO: 135) comprising first and second object sequences, a first complement sequence CM2-4B (SEQ ID NO: 136) having a probe ligand, and a second complement sequence CM3* (SEQ ID NO: 131). The second probe consists of an object oligonucleotide OB1-1B (SEQ ID NO: 135), a first complement sequence CM1-4B (SEQ ID NO: 133) having a probe ligand, and a second complement sequence CM3* (SEQ ID NO: 131). The object oligonucleotide OB1-1B has a biotin covalently linked to the first nucleotide, adenosine in the 5′ end that is used to immobilize the object sequence (see FIG. 23E for the structure of the biotin-coupled abasic nucleotide). The second complement oligonucleotide CM3* has fluorescein as a fluorescent label at the 5′ terminal.
The object oligonucleotide having a biotin residue in the 5′ terminal was immobilized to microwell plate wells coated with streptavidin. […] Fluorescence from the second complement oligonucleotide CM3* from each well was then measured at 535 nm using a microwell plate reader (GENios, TECAN, USA).

[6] = pH 6.0, 7.0, 8.0, 9.0, without and with streptavidin

T1 sequence (P22629 25-183): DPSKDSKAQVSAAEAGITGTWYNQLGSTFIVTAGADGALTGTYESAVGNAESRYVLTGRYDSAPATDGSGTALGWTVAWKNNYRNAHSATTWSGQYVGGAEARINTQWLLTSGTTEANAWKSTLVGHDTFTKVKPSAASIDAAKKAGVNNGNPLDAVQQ

Molecule: O=C(O)CCCC[C@@H]1SC[C@@H]2NC(=O)N[C@@H]21 [biotin]
- fluorescence intensity of UP6-23B as a function of inhibitor concentration (streptavidin [1]): decreases with increasing inhibitor concentration

Molecule: PKC (Protein Kinase C)
- fluorescence signal of the PKC probe after the kinase reaction and addition of anti-phosphothreonine antibody [2]: a substantial increase of the fulorescence signal with respect to that measured with un-reacted PKC probe is observed in the absence of the inhibitor

Molecule: UP1-34B: unimolecular affinity probe (SEQ ID NO: 127), biotin-thymidine at 34th position, fluorescein/DABCYL, 6 bp stem (GCAGCCTAGGAAACACCAAAGATGATATTTGGCTGC; listed as DNA, chemistry not fully specified)
- fluorescence in the high mass region of the gel (streptavidin [3]): strongly enhanced fluorescence
- melting temperature higher than that of the probe UP14-21B (streptavidin [4]; 6 bp stem duplex vs 4 bp stem duplex): about 20 °C

Molecule: UP2-6B/36B: unimolecular affinity probe (SEQ ID NO: 128), biotin-thymidines at 6th and 36th positions, fluorescein/DABCYL, 7 bp stem (GCAGCTCTAGGAAACACCAAAGATGATATTTGAGCTGC; listed as DNA, chemistry not fully specified)
- fluorescence in the high mass region of the gel (streptavidin [3]): strongly enhanced fluorescence

Molecule: UP6-23B: unimolecular probe (SEQ ID NO: 141), 15 nt loop, 5 bp stem, biotin, fluorescein/DABCYL (GCAGGATACTCATTACCATACCTGC; biotin, fluorescein and DABCYL, positions not given here, hairpin)
- melting temperature (streptavidin [4]; absence of the receptor agent, 0 mM MgCl2): about 38 °C
- melting temperature (streptavidin [4]; absence of the receptor agent, 5 mM MgCl2): about 58 °C
- fluorescence intensity as a function of pH (streptavidin [4]; [6]): increases dramatically depending on the pH
- melting temperature as a function of pH (streptavidin [4]; [6]): increases with pH
- melting temperature (streptavidin [4]; presence of the receptor agent (¼ molar equivalent of streptavidin), 0 mM MgCl2): about 33 °C
- melting temperature (streptavidin [4]; presence of the receptor agent (¼ molar equivalent of streptavidin), 5 mM MgCl2): about 45 °C

Molecule: UP10-13B: unimolecular probe (SEQ ID NO: 155), biotin in loop, 8th nucleotide from both ends of the loop region (GCAGCATCCTCATTACCCTAGCTGC; biotin in loop, hairpin stem-loop, further chemistry not given here)
- response of the fluorescence signal of the unimolecular probe to addition of the receptor agent (conjugation position dependence) (streptavidin [4]; ¼ molar equivalent of streptavidin vs. none): did not work properly as a unimolecular probe

Molecule: UP14-21B: unimolecular probe (SEQ ID NO: 149), 4 bp stem duplex, biotin, fluorescein/DABCYL (GCAGATACTCATTACCATACTGC; biotin, fluorescein and DABCYL, positions not given here, hairpin)
- relative increase of the fluorescence signal, compared between the 4 bp and 6 bp stem probes (streptavidin [4]; upon addition of streptavidin): larger

Molecule: UP15-23B: unimolecular probe (SEQ ID NO: 150), stem and loop length as UP6-23B, different loop sequence with secondary 4 bp stem conformer (GCAGGATACTGCTTACCATACCTGC; biotin label, position not given here, hairpin)
- relative increase of the fluorescence intensity (¼ molar equivalent of streptavidin divided by that without streptavidin) (streptavidin [4]): about 3

Molecule: UP16-23B: unimolecular probe (SEQ ID NO: 151), stem and loop length as UP6-23B, different loop sequence with secondary 4 bp stem conformer (GCAGGACTCTCATTACACTGCCTGC; listed as DNA, chemistry not fully specified)
- relative increase of the fluorescence intensity (¼ molar equivalent of streptavidin divided by that without streptavidin) (streptavidin [4]): about 1.5

B1: second probe: immobilized trimolecular affinity probe of Example 9: OB1-1B, CM1-4B and CM3* (nucleic acid)
chain 1: ATGGAAGTATATGGAAGTATATGGAAGTATTCGTGGGGTTTTGCAGTCGTAG
chain 2: GACTGCAAAACCCC
chain 3: CTACGACTGCAA
modifications: chain 1: DNA, backbone not given here; chain 2: DNA, backbone not given here; chain 3: DNA, 5' {Fluorescein}, backbone not given here; OB1-1B biotin at 5' first nucleotide, CM1-4B biotin ligand, further chemistry not fully specified
- increase of fluorescence intensity, normalized to intensity in the absence of the receptor agent (streptavidin [5]): 2-3.5 fold

Source: patent US20050118603A1, “Target detection system having a conformationally sensitive probe comprising a nucleic acid based signal transducer” (Ahram Biosystems Inc., priority 2002, published 2005)
